Where a name gives a salt, the structure may show the parent alone.
What was measured:
human MC4 receptor [1] = biological target: T1, human MC4 receptor (Homo sapiens, UniProt P32245); assay: Affinity assay: displacement of [125I]-[Nle4,D-Phe7]-α-MSH binding to membranes of CHO-K1 cells (SPA); conditions: radioligand displacement, 100 pM [125I]-NDP-α-MSH, 6 h; read-out: IC50 with respect to the MC4 receptor
T1 construct: host or cells: CHO-K1
Procedure: This affinity assay is carried out by measuring the binding of [^125I]-[Nle^4-D-Phe^7]-[…]-MSH to cell membranes. The displacement of this radioligand is used to identify inhibitors of the specific binding to recombinant melanocortin receptors.
For this assay, membranes prepared from CHO-K1 cells expressing the human MC4 receptor at high density (Euroscreen) or membranes, that were purchased (Perkin Elmer Life Sciences, Receptor Biology), of HEK-293 cells expressing hMC3 receptors were used. CHO-K1 cells transfected with the hMC4 receptor gene (Euroscreen) are seeded into DMEM/Nutrient Mix F12 culture medium containing 10% foetal calf serum (Biowhittaker), 1% sodium pyruvate, 1% L-glutamine, 1% non-essential amino acids, 0.4 mg/ml geneticin (G418) and 0.5% PenStrep, these products being provided by Gibco/BR1, except the calf serum. At 80% confluency, the cells are scraped off and the cell pellets are frozen at −80° C. […]
[^125I]-[Nle^4, D-Phe^7]-[…]-MSH is diluted in binding buffer+0.2% BSA. […] The nonspecific binding is defined by NDP-[…]MSH at 10^−7 M. The total binding is measured by the number of counts per minute in the presence of the radioligand alone. […]

human MC3 receptor = biological target: T2, human MC3 receptor (Homo sapiens, UniProt P41968); assay: Functional agonist assay: cAMP formation in CHO(dhfr-) cells; format: cell-based; conditions: 1 hour incubation, read-out: EC50 with respect to the MC3 receptor
T2 construct: expressed in transfected cells; host or cells: CHO(dhfr-)
Procedure: (§1) A functional assay is used to differentiate between the agonist activity and the antagonist activity. For this, the formation of cyclic adenosine monophosphate (cAMP) generated by activation of the MC3 receptor or of the MC4 receptor is assayed.
CHO(dhfr-) cells expressing the human MC3 receptor are seeded into MEM Eagle culture medium (Sigma) containing 10% of dialysed calf serum, 1% L-glutamine, 1% sodium pyruvate, 20 mg/500 ml L-proline, 0.3 mg/ml Geneticin and 0.5% PenStrep, these products being provided by Gibco/BR1, except for the dialysed calf serum (Cambrex) and the L-proline (Sigma).
(§2) The compounds to be tested (diluted in 10% DMSO), in an amount of 10 μl at a concentration of 10 times the final concentration, are added to the plates of cells (final volume=100 μl/well). After incubation for 1 hour (37° C., 5% CO2), the amount of cAMP is assayed using Tropix kits (Appelera) according to the supplier's documentation. The intrinsic activity of the compounds is calculated by comparing the stimulation of cAMP by these compounds to the stimulation induced by 30 nM of NDP[…]MSH (maximum of 100%). The EC50 value for the compounds corresponds to the concentration which produces 50% of the maximum stimulation obtained with this compound.

human MC4 receptor [2] = biological target: T1, human MC4 receptor; assay: Functional agonist assay: cAMP formation in CHO-K1 cells; format: cell-based; conditions: 1 hour incubation, read-out: EC50 with respect to the MC4 receptor
Procedure: as §1
CHO-K1 cells, expressing the human MC4 receptor at a moderate density (Euroscreen), are seeded into DMEM/Nutrient Mix F12 culture medium (Gibco/BR1) containing 10% of foetal calf serum, 0.5% sodium pyruvate, 1% L-glutamine, 1% non-essential amino acids, 200 mg/l hygromycin B and 0.5% PenStrep, these products being provided by Gibco/BR1, except the calf serum (Biowhittaker) and hygromycin B (Sigma).
as §2

T1 sequence (P32245 whole entry): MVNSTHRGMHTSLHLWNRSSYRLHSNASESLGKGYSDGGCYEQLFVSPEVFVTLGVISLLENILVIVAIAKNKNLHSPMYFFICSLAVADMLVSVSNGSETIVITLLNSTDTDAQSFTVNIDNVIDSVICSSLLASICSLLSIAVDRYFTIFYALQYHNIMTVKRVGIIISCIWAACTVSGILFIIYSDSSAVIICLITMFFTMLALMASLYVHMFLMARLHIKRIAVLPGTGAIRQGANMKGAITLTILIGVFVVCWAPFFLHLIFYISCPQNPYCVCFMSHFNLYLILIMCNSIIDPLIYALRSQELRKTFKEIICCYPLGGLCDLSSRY
T2 sequence (P41968 whole entry): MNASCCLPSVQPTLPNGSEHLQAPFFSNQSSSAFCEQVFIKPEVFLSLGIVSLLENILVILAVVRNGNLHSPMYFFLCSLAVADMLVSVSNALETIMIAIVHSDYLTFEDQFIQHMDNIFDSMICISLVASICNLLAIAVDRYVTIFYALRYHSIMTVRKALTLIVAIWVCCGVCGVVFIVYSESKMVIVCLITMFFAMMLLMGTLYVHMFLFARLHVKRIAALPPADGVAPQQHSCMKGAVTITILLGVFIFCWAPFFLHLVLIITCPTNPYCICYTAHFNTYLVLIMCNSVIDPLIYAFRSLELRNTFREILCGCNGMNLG

melting point	IC50 (human MC4 receptor [1])	EC50 (human MC3 receptor)	EC50 (human MC4 receptor [2])	SMILES
> 220 °C	–	–	–	CCN(CC)C(=O)N(C1CCCCC1)C1CCN(C(=O)[C@@H](Cc2ccc(Cl)cc2)NC2CCNCC2)CC1 (as salt: HCl) [Compound 1, N-[1-(4-chloro-N-piperidin-4-yl-D-phenylalanyl)piperidin-4-yl]-N-cyclohexyl-N′,N′-diethylurea]
–	0.3 µM	0.37 µM	0.03 µM	CCN(CC)C(=O)N(C1CCCCC1)C1CCN(C(=O)[C@@H](Cc2ccc(Cl)cc2)NC2CCC(N)CC2)CC1 (stereo partly drawn) [Compound 2, N-{1-[N-(4-aminocyclohexyl)-4-chloro-D-phenylalanyl]piperidin-4-yl}-N-cyclohexyl-N′,N′-diethylurea hydrochloride]
–	–	0.59 µM	0.08 µM	CCN(CC)C(=O)N(C1CCCCC1)C1CCN(C(=O)[C@@H](Cc2ccc(Cl)cc2)NC2CCNCC2)CC1 [Compound 1, N-[1-(4-chloro-N-piperidin-4-yl-D-phenylalanyl)piperidin-4-yl]-N-cyclohexyl-N′,N′-diethylurea]
195 °C	–	–	–	CCN(CC)C(=O)N(C1CCCCC1)C1CCN(C(=O)[C@@H](Cc2ccc(Cl)cc2)NC2CCC(N)CC2)CC1 (stereo partly drawn) (as salt: HCl) [Compound 2, N-{1-[N-(4-aminocyclohexyl)-4-chloro-D-phenylalanyl]piperidin-4-yl}-N-cyclohexyl-N′,N′-diethylurea hydrochloride]

Source: US20070191364A1, “AMINOPIPERIDINE DERIVATIVES, PREPARATION THEREOF AND THERAPEUTIC USE THEREOF” (SANOFI-AVENTIS, priority 2004, published 2007)
